Each structure is given as a SMILES string. Where a name gives a salt, the structure may show the parent alone. Bounds are passed on as bounds.

One assay deals with T1, purified human IDO protein (Homo sapiens, UniProt P14902).
T1 construct: 2 extra amino acids (linker from the BglII cloning site of pQE70); made in house; host or cells: E. coli M15(pREP4) with plasmid pQE70-hIDO
T1 sequence (P14902 whole entry P110S/E119G): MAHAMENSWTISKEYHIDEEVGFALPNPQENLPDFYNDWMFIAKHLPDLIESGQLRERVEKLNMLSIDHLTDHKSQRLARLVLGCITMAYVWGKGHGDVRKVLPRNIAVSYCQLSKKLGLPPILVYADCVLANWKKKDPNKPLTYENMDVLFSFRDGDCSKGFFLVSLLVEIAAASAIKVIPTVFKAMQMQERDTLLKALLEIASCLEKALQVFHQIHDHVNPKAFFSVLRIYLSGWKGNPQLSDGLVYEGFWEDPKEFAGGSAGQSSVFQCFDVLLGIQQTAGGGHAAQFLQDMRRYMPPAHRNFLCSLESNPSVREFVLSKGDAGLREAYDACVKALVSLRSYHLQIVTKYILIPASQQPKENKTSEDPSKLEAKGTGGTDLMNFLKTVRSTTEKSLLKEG
The experiment in a line: Enzymatic IDO assay (kynurenine production, absorbance at 480 nm). It is filed as biochemical. Particulars: hIDO IC50, recombinant human IDO; values reported in ranges. Here is the method: The inhibitors were initially diluted in DMSO at 100 mM and were diluted in potassium phosphate 50 mM, added to the reaction mixture at final concentrations raging from 1 mM to 5 nM and preincubated with the enzyme for 5 min at 25° C. The reaction was started by addition of L-tryptophan to 200 μM and incubated 15 min at 37° C. The reaction was stopped by addition of 0.5 vol of 30% trichloroacetic acid and incubated 30 min at 60° C. to hydrolyze N-formylkynurenine to kynurenine. The reaction was centrifuged at 3400 g for 5 min to remove precipitated protein and the supernatant was reacted with 2% (w/v) of p-dimethylaminobenzaldehyde in acetic acid. The reaction was incubated 10 min at 25° C. and read at 480 nm in a spectrophotometer. […] Nonlinear regressions and determination of the IC50 values were performed using the GraphPad Prism 4 software.
As usually defined, the IC50 is the midpoint of a concentration-inhibition curve. For `CN(C)C(=O)Oc1ccc(Br)cc1-c1c[nH]cn1` [compound 1035, 4-bromo-2-(1H-imidazol-4-yl)phenyl dimethylcarbamate], the IC50 is above 100 µM.

For `CN(C)C(=O)Oc1ccc(Cl)cc1-c1c[nH]cn1` [compound 1076, 4-chloro-2-(1H-imidazol-4-yl)phenyl dimethylcarbamate], the 50% inhibitory concentration (IC50) was above 100 µM.

`Oc1c(Cl)cc(Cl)c(OCCC2CCCCC2)c1-c1cnc[nH]1` [compound 1086, 4,6-dichloro-3-(2-cyclohexylethoxy)-2-(1H-imidazol-5-yl)phenol]: the IC50 was above 100 µM.

Turning to `CN(C(=O)Oc1ccc(Cl)cc1-c1c[nH]cn1)c1ccccc1` [compound 1088, 4-chloro-2-(1H-imidazol-4-yl)phenyl methyl(phenyl)carbamate], the half-inhibitory concentration (IC50) was above 100 µM.

Turning to `CN1CCN(C(=O)Oc2ccc(Cl)cc2-c2c[nH]cn2)CC1` [compound 1112, 4-chloro-2-(1H-imidazol-4-yl)phenyl 4-methylpiperazine-1-carboxylate], the IC50 fell in the range of 10 to 100 µM.

Staying with this assay, now noted: recombinant human IDO; values reported in ranges; read-out: hIDO IC50.
In the case of `C=C(COc1ccccc1-c1c[nH]cn1)c1coc2ccccc12` [compound 1030, 4-(2-(2-(benzofuran-3-yl)allyloxy)phenyl)-1H-imidazole], the IC50 fell in the range of 1 to 10 µM.

With `CC(COc1ccccc1-c1c[nH]cn1)c1coc2ccccc12` (stereo not shown) [compound 1031, 4-(2-(2-(benzofuran-3-yl)propoxy)phenyl)-1H-imidazole], the IC50 lay in the range of 1 to 10 µM.

For `O=C(O)c1ccc(COc2ccccc2-c2c[nH]cn2)cc1` [compound 1032, lithium 4-((2-(1H-imidazol-4-yl)phenoxy)methyl) benzoate], the half-inhibitory concentration (IC50) lay within 10 to 100 µM.

Regarding `CCOC(=O)Oc1ccc(Br)cc1-c1cn(C(=O)OCC)cn1` [compound 1036, ethyl 4-(5-bromo-2-(ethoxycarbonyloxy)phenyl)-1H-imidazole-1-carboxylate], the IC50 was in the range of 10 to 100 µM.

As to `Fc1ccc(-c2cnc[nH]2)cc1Cl` [compound 1037, 5-(3-chloro-4-fluorophenyl)-1H-imidazole], the IC50 is 10 to 100 µM.

Consider `Oc1ccc(Cl)cc1-c1cnc2cnccn12` [compound 1038, 4-chloro-2-(imidazo[1,2-a]pyrazin-3-yl)phenol], for which the half-maximal inhibitory concentration (IC50) was above 100 µM.

With `FC(F)(F)c1ccccc1CCOc1ccccc1-c1c[nH]cn1` [compound 1040, 4-(2-(2-(trifluoromethyl)phenethoxy)phenyl)-1H-imidazole], the IC50 was in the range of 1 to 10 µM.

In the case of `CC(Cc1ccccc1Cl)Oc1ccccc1-c1c[nH]cn1` (stereo not shown) [compound 1043, 4-(2-(1-(2-chlorophenyl)propan-2-yloxy)phen-yl)-1H-imidazole], the IC50 lay within 1 to 10 µM.

Turning to `CC(CC1CCCCC1)Oc1ccccc1-c1c[nH]cn1` (stereo not shown) [compound 1044, 4-(2-(1-cyclohexylpropan-2-yloxy)phenyl)-1H-imidazole], the half-maximal inhibitory concentration (IC50) lay within 10 to 100 µM.

Consider `CC(Oc1ccccc1-c1c[nH]cn1)c1ccccc1` (stereo not shown) [compound 1045, 4-(2-(1-phenylethoxy)phenyl)-1H-imidazole], for which the IC50 fell in the range of 10 to 100 µM.

Take `CC(C)(C)OC(=O)Nc1ccc(CCOc2ccccc2-c2c[nH]cn2)cc1` [compound 1046, tert-butyl 4-(2-(2-(1H-imidazol-4-yl)phenoxy)ethyl)phenylcarbamate]: the concentration for half-maximal inhibition (IC50) lay within 1 to 10 µM.

As to `CCOC(=O)n1cnc(-c2ccccc2)c1` [compound 1047, ethyl 4-phenyl-1H-imidazole-1-carboxylate], the IC50 was above 100 µM.

On to `Oc1c(-c2cnc[nH]2)[nH]c2ccccc12` [compound 1048, 2-(1H-imidazol-5-yl)-1H-indol-3-ol], for which the IC50 was above 100 µM.

With `NC(CCc1ccccc1-c1c[nH]cn1)C(=O)O` (stereo not shown) [compound 1050, lithium 4-(2-(1H-imidazol-4-yl)phenyl)-2-amino-butanoate], the concentration for half-maximal inhibition (IC50) was above 100 µM.

On to `COc1cc(F)c(Cl)cc1-c1cnc[nH]1` [compound 1051, 5-(5-chloro-4-fluoro-2-methoxyphenyl)-1H-imidazole], for which the half-maximal inhibitory concentration (IC50) is above 100 µM.

As to `CC(COc1ccccc1-c1c[nH]cn1)C1CCCCC1` (stereo not shown) [compound 1052, 4-(2-(2-cyclohexylpropoxy)phenyl)-1H-imidazole hydrochloride], the IC50 lay in the range of 1 to 10 µM.

Regarding `Clc1ccc(OCc2ccccc2)c(-c2cncn2C2CCCCC2)c1` [compound 1060, 5-(2-(benzyloxy)-5-chlorophenyl)-1-cyclo-hexyl-1H-imidazole], the IC50 was above 100 µM.

In the case of `Nc1ccc(CCOc2ccccc2-c2c[nH]cn2)cc1` [compound 1078, 4-(2-(2-(1H-imidazol-4-yl)phenoxy)ethyl) aniline], the concentration for half-maximal inhibition (IC50) fell in the range of 1 to 10 µM.

Consider `O=C(O)CCSc1nc(-c2ccccc2)c(-c2ccccc2)[nH]1` [compound 1079, 3-(4,5-diphenyl-1H-imidazol-2-ylthio)propanoic acid], for which the half-maximal inhibitory concentration (IC50) was above 100 µM.

`CC(C)N(C(=O)Oc1ccc(Cl)cc1-c1c[nH]cn1)C(C)C` [compound 1085, 4-chloro-2-(1H-imidazol-4-yl)phenyl diisopropylcarbamate]: the IC50 is above 100 µM.

Take `O=C(Oc1ccc(Cl)cc1-c1c[nH]cn1)N1CCCC1` [compound 1087, 4-chloro-2-(1H-imidazol-4-yl)phenyl pyrrolidine-1-carboxylate]: the IC50 is above 100 µM.

For the compound `CC(C)(C)C(=O)Nc1ccc(CCOc2ccccc2-c2c[nH]cn2)cc1` [compound 1101, N-(4-(2-(2-(1H-imidazol-4-yl)phenoxy)ethyl)phenyl)pivalamide], the IC50 was 1 to 10 µM.

As for `O=C(Cc1ccccc1)Nc1ccc(CCOc2ccccc2-c2cnc[nH]2)cc1` [compound 1102, N-(4-(2-(2-(1H-imidazol-4-yl)phenoxy)ethyl)phenyl)-2-phenylacetamide], the IC50 is below 1 µM.

On to `CC(C)(C)CC(=O)Nc1ccc(CCOc2ccccc2-c2c[nH]cn2)cc1` [compound 1103, N-(4-(2-(2-(1H-imidazol-4-yl)phenoxy)ethyl)phenyl)-3,3-dimethylbutanamide], for which the concentration for half-maximal inhibition (IC50) lay in the range of 1 to 10 µM.

Take `CCOC(=O)Nc1ccc(CCOc2ccccc2-c2c[nH]cn2)cc1` [compound 1104, ethyl 4-(2-(2-(1H-imidazol-4-yl)phenoxy)ethyl)phenylcarbamate]: the 50% inhibitory concentration (IC50) fell in the range of 1 to 10 µM.

As for `Oc1ccc(OCc2ccccc2)cc1-c1cnc[nH]1` [compound 1105, 4-(benzyloxy)-2-(1H-imidazol-5-yl)phenol], the IC50 fell in the range of 10 to 100 µM.

Regarding `Fc1ccccc1CCOc1ccccc1-c1cnc[nH]1` [compound 1106, 5-(2-(2-fluorophenethoxy)phenyl)-1H-imidazole], the half-maximal inhibitory concentration (IC50) lay within 1 to 10 µM.

Regarding `CC(C)(C)CCOc1ccc(O)c(-c2cnc[nH]2)c1` [compound 1107, 4-(3,3-dimethylbutoxy)-2-(1H-imidazol-5-yl) phenol], the IC50 fell in the range of 10 to 100 µM.

As to `c1ccc(-c2cncn2-c2ccccc2)cc1` [compound 1108, 1,5-diphenyl-1H-imidazole], the concentration for half-maximal inhibition (IC50) lay within 10 to 100 µM.

As for `CC(COc1ccccc1-c1c[nH]cn1)c1ccccc1Cl` (stereo not shown) [compound 1109, 4-(2-(2-(2-chlorophenyl)propoxy)phenyl)-1H-imidazole], the IC50 fell in the range of 10 to 100 µM.

As for `CC(C)(C)CCOc1ccc(O)cc1-c1c[nH]cn1` [compound 1110, 4-(3,3-dimethylbutoxy)-3-(1H-imidazol-4-yl) phenol], the 50% inhibitory concentration (IC50) lay in the range of 10 to 100 µM.

Turning to `Oc1c(Cl)cc(Cl)c(OCCc2ccccc2Cl)c1-c1cnc[nH]1` [compound 1111, 4,6-dichloro-3-(2-chlorophenethoxy)-2-(1H-imidazol-5-yl)phenol], the half-inhibitory concentration (IC50) was in the range of 10 to 100 µM.

For `c1ccc2c(c1)NCn1cncc1-2` [compound 1114, 5,6-dihydroimidazo[1,5-c]quinazoline], the IC50 is above 100 µM.

As for `Nn1cncc1-c1ccccc1` [compound 1115, 5-phenyl-1H-imidazol-1-amine], the IC50 was above 100 µM.

In the case of `Ic1ccccc1-c1cnc[nH]1` [compound 1119, 5-(2-iodophenyl)-1H-imidazole], the IC50 was in the range of 10 to 100 µM.

On to `Oc1cc(F)ccc1-c1cnc[nH]1` [compound 1120, 5-fluoro-2-(1H-imidazol-5-yl)phenol], for which the IC50 lay in the range of 10 to 100 µM.

As to `CC(=O)Nc1ccccc1-c1c[nH]cn1` [compound 1121, N-(2-(1H-imidazol-4-yl)phenyl)acetamide], the half-inhibitory concentration (IC50) was above 100 µM.

`Oc1ccc(Cl)cc1-c1cncn1-c1cccnc1` [compound 1122, 4-chloro-2-(1-(pyridin-3-yl)-1H-imidazol-5-yl)phenol]: the half-inhibitory concentration (IC50) fell in the range of 10 to 100 µM.

With `Oc1c(-c2cnc[nH]2)ccc(F)c1Cl` [compound 1129, 2-chloro-3-fluoro-6-(1H-imidazol-5-yl)phenol], the IC50 was in the range of 10 to 100 µM.

Turning to `Oc1cc(F)c(Cl)cc1-c1cnc[nH]1` [compound 1130, 4-chloro-5-fluoro-2-(1H-imidazol-5-yl)phenol], the IC50 is 1 to 10 µM.

Consider `C=CCn1cncc1-c1ccccc1` [compound 1131, 1-allyl-5-phenyl-1H-imidazole], for which the IC50 is above 100 µM.

As for `O=C(Nc1ccc(CCOc2ccccc2-c2c[nH]cn2)cc1)OCc1ccccc1` [compound 1136, benzyl (4-(2-(2-(1H-imidazol-4-yl)phenoxy)ethyl)phenyl)carbamate], the IC50 lay within 1 to 10 µM.

As to `CC1Cn2cncc2-c2ccccc21` (stereo not shown) [compound 1137, 6-methyl-5,6-dihydroimidazo[5,1-a]isoquino-line], the IC50 is above 100 µM.

With `Oc1ccccc1-c1cnco1` [compound 1139, 2-(oxazol-5-yl)phenol], the half-maximal inhibitory concentration (IC50) lay in the range of 10 to 100 µM.

The values above are taken from patent US8722720B2, “Imidazole derivatives as IDO inhibitors” (NewLink Genetics Corporation, priority 2010, dated 2014).
